Values quoted from earlier work, collected in US11266615B2, “Pyrimethamine-based pharmaceutical compositions and methods for fabricating thereof” (Harrow IP, LLC, priority 2018, dated 2022).

Settings: background statement

- solubility in water: poor
SMILES: CCc1nc(N)nc(N)c1-c1ccc(Cl)cc1 [pyrimethamine, 5-(4-chlorophenyl)-6-ethyl-pyrimidine-2,4-diamine]
